Assay results: article PMC12040169 (PLOS Biology, 2025)

Experiment: in vitro
Conditions: human, hela cells, % viability
With O=C(OCc1nnsc1Cl)c1ccc(C(=O)c2ccccc2)cc1 [CBK297897] the viability at 28.5 h, 10 µM was 109%.
Compound CC(C)C(NC(=O)CN1CSCC1=O)c1ccc(C(C)(C)C)cc1 (stereo not shown) [CBK297899] has a viability at 28.5 h, 10 µM of 88.6%.
For COc1ccc(C(CNC(=O)Cn2c(-c3cccc(C)c3)n[nH]c2=S)N2CCOCC2)cc1OC (stereo not shown) [CBK297900], the viability at 28.5 h, 10 µM was 88.2%.
In the case of C=CCn1c(Cc2csc(NC(=O)c3cc(S(=O)(=O)NC)ccc3C)n2)n[nH]c1=S [CBK297903], the viability at 28.5 h, 10 µM is reported as 105%.
For Cc1ccc(-c2n[nH]c(=S)n2CCC(=O)N(C)Cc2ccc(N3CCCCC3)cc2)cc1 [CBK297904], the viability at 28.5 h, 10 µM was 106%.
Compound C=CCn1c(-c2sc(NC(=O)CNC(=O)C(C)(C)C)nc2C)n[nH]c1=S [CBK297907] has a viability at 28.5 h, 10 µM of 91.2%.
Compound Cc1[nH]c2ccc(C(=O)N(Cc3ccccc3)C3CC3)cc2c1C [CBK297913] has a viability at 28.5 h, 10 µM of 89.1%.
Cc1sc2nc(C(C)Nc3ccc4[nH]c(=O)[nH]c4c3)[nH]c(=O)c2c1C (stereo not shown) [CBK297915] showed a viability at 28.5 h, 10 µM of 80.6%.
With Cc1cc(C(=O)C(C)Sc2nnc(N)s2)c(C)n1-c1ccccc1 (stereo not shown) [CBK297916] the viability at 28.5 h, 10 µM was 87%.
COc1ccc(-c2n[nH]c(=S)n2CCC(=O)NCc2ccc(CN3CCCCC3)cc2)cc1 [CBK297918] gave a viability at 28.5 h, 10 µM of 94.5%.
In the case of O=C(NCc1ccccc1)C1CCN(C(=O)Cc2c(F)cccc2Cl)CC1 [CBK297919], the viability at 28.5 h, 10 µM is reported as 96.6%.
In the case of CC(OC(=O)Cc1ccccc1[N+](=O)[O-])c1nnnn1-c1ccccc1 (stereo not shown) [CBK297920], the viability at 28.5 h, 10 µM is reported as 97.6%.
Cc1ccc(C2=NN(C(=O)CNc3cc(F)cc(F)c3)C(c3ccco3)C2)cc1 (stereo not shown) [CBK297922] gave a viability at 28.5 h, 10 µM of 94.2%.
Cc1ccc2nc(COC(=O)c3ccc(Cn4nnc5ccccc54)cc3)cn2c1 [CBK297923] gave a viability at 28.5 h, 10 µM of 96.6%.
With O=C(Cc1c[nH]c2ccccc12)N1CCCC1c1ccc(F)cc1 (stereo not shown) [CBK297927] the viability at 28.5 h, 10 µM was 105%.
In the case of CC(C)Cc1ccc(S(=O)(=O)Nc2ccc(C(=O)O)cc2)cc1 [CBK297930], the viability at 28.5 h, 10 µM is reported as 98.4%.
CC1CN(S(=O)(=O)c2ccc(NC(=O)C3CC(=O)Nc4cc(F)ccc43)cc2)CC(C)O1 (stereo not shown) [CBK297933] gave a viability at 28.5 h, 10 µM of 91.4%.
With Cc1cc(C(=O)CSc2nncs2)c(C)n1C(C)c1ccccc1 (stereo not shown) [CBK297934] the viability at 28.5 h, 10 µM was 86.8%.
O=C(Cc1csc(-c2ccsc2)n1)Nc1nc2c(s1)CCC2 [CBK297935] gave a viability at 28.5 h, 10 µM of 96.8%.
Work on CC(NC(=O)c1cc2ccccc2c(=O)[nH]1)c1ccc(-c2ccccc2)cc1 (stereo not shown) [CBK297936] yielded a viability at 28.5 h, 10 µM of 86.4%.
For CCCNC(=O)C(C)NC(=O)C1=Cc2ccccc2OC1 (stereo not shown) [CBK297937], the viability at 28.5 h, 10 µM was 95.2%.
Compound Cc1[nH]c(=O)[nH]c(=O)c1CCC(=O)OCc1nccn1Cc1ccccc1 [CBK297939] has a viability at 28.5 h, 10 µM of 82.1%.
With CC(C)c1ccc(NS(=O)(=O)c2ccc(F)c(C(=O)O)c2)cc1 [CBK297940] the viability at 28.5 h, 10 µM was 104%.
With COc1ccc(C)cc1N(C(=O)c1ccccn1)c1nc2ccccc2s1 [CBK297944] the viability at 28.5 h, 10 µM was 97.7%.
With Cc1nnnn1C(Cc1cccc(F)c1)C(=O)N1CC(C)CC(C)C1 (stereo not shown) [CBK298262] the viability at 28.5 h, 10 µM was 96.3%.
With CN(Cc1cc(Br)cs1)C(=O)CCc1c[nH]c2ccccc12 [CBK298268] the viability at 28.5 h, 10 µM was 108%.
COc1cccc(C(CNS(=O)(=O)c2ccc3c(c2)OCCCO3)N(C)C)c1 (stereo not shown) [CBK298270] gave a viability at 28.5 h, 10 µM of 98.2%.
In the case of COc1cccc(-c2nc(-c3ccc4[nH]c(=O)[nH]c4c3)cs2)c1OC [CBK298271], the viability at 28.5 h, 10 µM is reported as 108%.
Work on CN(C)c1nc(Cl)c(C=Cc2cc(C(=O)O)c3ccccc3n2)s1 [CBK298272] yielded a viability at 28.5 h, 10 µM of 110%.
For CN1CCN(c2cc(CNC(=O)c3ccnc(Cl)c3)ccn2)CC1 [CBK298275], the viability at 28.5 h, 10 µM was 92.4%.
For CN(Cc1ccc2c(c1)OCO2)C(=O)c1cnn2c(-c3ccccc3)ccnc12 [CBK298276], the viability at 28.5 h, 10 µM was 95%.
Cc1ccccc1-c1nnc(-c2ccc(C(=O)N=c3sccn3C)cc2)o1 [CBK298283] showed a viability at 28.5 h, 10 µM of 97.1%.
With CC(NC(=O)c1cc(-c2ccccc2)nc2ccccc12)c1cccc(S(N)(=O)=O)c1 (stereo not shown) [CBK298285] the viability at 28.5 h, 10 µM was 79.5%.
Compound Cc1nccn1-c1ccc(NC(=O)C2CC(=O)N(C3CCCC3)C2)cc1F (stereo not shown) [CBK298286] has a viability at 28.5 h, 10 µM of 83.1%.
